Results from patent US20140377870A1 (priority 2010, published 2014).

What was measured:
[1] = tested on: cells not expressing the HSV-TK gene; conditions: cited from earlier work
ES cells = conditions: cited from earlier work
VACVΔE3L::GyrB-PKR = format: cell-based, vaccinia virus
VACVΔE3L = format: cell-based, vaccinia virus
VACVΔE3L::GyrB-PKRK296H = format: cell-based, vaccinia virus
VACVΔJ2R::GyrB-PKR = format: cell-based, vaccinia virus

| Compound | nonspecific toxicity [1] | totipotency of ES cells (ES cells) | coumermycin concentration at which sensitivity of the virus was observed (VACVΔE3L::GyrB-PKR) | sensitivity of virus to coumermycin (VACVΔE3L) | sensitivity of virus to coumermycin (VACVΔE3L::GyrB-PKRK296H) | sensitivity to coumermycin compared to untreated cells (VACVΔJ2R::GyrB-PKR) |
| --- | --- | --- | --- | --- | --- | --- |
| Nc1nc(O)c2ncn(COC(CO)CO)c2n1 [GCV, ganciclovir] | nonspecific toxicity | reduce the totipotency | – | – | – | – |
| Coumermycin A1 | – | – | greater than 5 ng/ml | resistant to all doses | resistant to all doses | at least 100,000 fold |
